From US20170369492A1 (Takeda Pharmaceutical Company Limited, priority 2014, published 2017)
pEC50: −log10 of the molar value.

What follows are compounds tested against T1, human GPR43 (Homo sapiens, UniProt O15552) (assay: Ca-Flux Functional Assay: Determination of Agonist/Positive Allosteric Modulator (PAM) Activity). Conditions: CHO-K1 Gα16 cells stably expressing human GPR43; compound added in the presence of EC20 sodium acetate; intracellular Ca2+ by FLIPR; agonist/PAM activity not distinguished.
T1 construct: expressed in transfected cells
T1 sequence (O15552 1-330): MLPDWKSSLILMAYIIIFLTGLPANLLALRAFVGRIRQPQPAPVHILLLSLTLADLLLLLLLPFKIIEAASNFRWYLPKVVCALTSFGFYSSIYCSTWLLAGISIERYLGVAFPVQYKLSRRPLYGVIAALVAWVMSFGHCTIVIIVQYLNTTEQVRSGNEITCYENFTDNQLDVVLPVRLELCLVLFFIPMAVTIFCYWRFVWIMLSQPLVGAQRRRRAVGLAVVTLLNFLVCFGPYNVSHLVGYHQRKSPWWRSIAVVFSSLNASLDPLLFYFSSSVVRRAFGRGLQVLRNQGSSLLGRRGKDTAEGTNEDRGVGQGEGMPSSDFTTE
Assay type: cell-based
Protocol: Ca-Flux Functional Assay: Determination of Agonist/Positive Allosteric Modulator (PAM) Activity
GPR43 agonist/PAM activity was determined by measuring changes in intracellular calcium levels using a Ca^2+ sensitive fluorescent dye. The changes in fluorescent signal were monitored by FLIPR (manufactured by Molecular Devices). GPR43 mediated increases in intracellular Ca^2+ concentration were readily detected upon activation with sodium acetate. Prior to the assay (24 hours), CHO-K1 Gα16 cells stably expressing human GPR43 were-seeded in cell culture medium in black, clear-bottom 384-well plates (Corning Inc) and grown overnight at 37° C., 5% CO2. On the day of the assay, cell culture media was removed and cells were loaded with Calcium 5 Dye (Molecular Devices) diluted in HBSS containing 25 mM HEPES, 2.5 mM Probenecid, 0.1% BSA for 1 hour at 37° C., 5% CO2. 10 point half log concentration response curves of sodium acetate from 10 mM were conducted prior to the testing of compounds to calculate the sodium acetate concentration that produces 20% of the maximal response (EC20). Test compounds (at to point half log concentration response curves from 10 μM) were added in the presence of sodium acetate to achieve a final concentration that produces approximately 20% maximal response as calculated from the previous experiment. The changes in fluorescent signal were monitored by FLIPR upon addition of the compound/EC20 sodium acetate mix. The EC50 values were determined from ten point concentration response curves. Curves were generated using the average of two wells for each data point.
The above assay detects both GPR43 receptor agonists and positive allosteric modulators of the GPR43 receptor, without distinguishing between the two. Activity in either regard is useful in the treatment of conditions associated with GPR43 receptor activity.

Structure (SMILES)	pEC50
CNc1ncnc2c(S(=O)(=O)c3ccccc3)c(N)n(C3CCC(F)(F)CC3)c12 [Example 33, 7-(benzenesulfonyl)-5-(4,4-difluorocyclohexyl)-4-N-methyl-5H-pyrrolo[3,2-d]pyrimidine-4,6-diamine]	5.57
CC1CCCCC1n1c(N)c(S(=O)(=O)c2ccccc2)c2nccnc21 (mixture of isomers) [Example 44, 5-(2-methylcyclohexyl)-7-(phenylsulfonyl)-5H-pyrrolo[2,3-b]pyrazin-6-amine]	5.97
CC1CN(S(=O)(=O)c2c(N)n(C3CCCCC3)c3nccnc23)CC(C)O1 (mixture of isomers) [Example 76, 5-cyclohexyl-7-(2,6-dimethylmorpholine-4-sulfonyl)-5H-pyrrolo[2,3-b]pyrazin-6-amine]	5.82
CCCCn1c(N)c(S(=O)(=O)c2ccccc2)c2nccnc21 [Example 45, 5-butyl-7-5(phenylsulfonyl)-5H-pyrrolo[2,3-b]pyrazin-6-amine]	5.54
CCCN(C)S(=O)(=O)c1c(N)n(C2CCCCC2)c2nccnc12 [Example 60, 6-amino-5-cyclohexyl-N-methyl-N-propyl-5H-pyrrolo[2,3-b]pyrazine-7-sulfonamide]	5.85
COc1ncnc2c(S(=O)(=O)c3ccccc3)c(N)n(C3CCCC3)c12 [Example 35, 7-(benzenesulfonyl)-5-cyclopentyl-4-methoxy-5H-pyrrolo[3,2-d]pyrimidin-6-amine]	5.73
Cc1ccc2c(S(=O)(=O)c3ccccc3)c(N)n(C3CCC(F)(F)CC3)c2n1 [Example 25, 3-(benzenesulfonyl)-1-(4,4-difluorocyclohexyl)-6-methyl-1H-pyrrolo[2,3-b]pyridin-2-amine]	5.96
Nc1c(S(=O)(=O)c2ccccc2)c2ccncc2n1C1CCCCC1 [Example 20, 3-(benzenesulfonyl)-1-cyclohexyl-1H-pyrrolo[2,3-]pyridin-2-amine]	5.63
Nc1c(S(=O)(=O)N2CCC(CO)CC2)c2nccnc2n1C1CCCCC1 [Example 106, (1-{6-amino-5-cyclohexyl-5H-pyrrolo[2,3-b]pyrazine-7-sulfonyl}piperidin-4-yl)methanol]	5.52
CN1CCN(S(=O)(=O)c2c(N)n(C3CCCCC3)c3nccnc23)CC1 [Example 63, 5-cyclohexyl-7-((4-methylpiperazin-1-yl)sulfonyl)-5H-pyrrolo[2,3-b]pyrazin-6-amine]	5.10
Nc1c(S(=O)(=O)c2ccccc2)c2ncnc(O)c2n1C1CCC(F)(F)CC1 [Example 31, 6-amino-5-(4,4-difluorocyclohexyl)-7-(phenylsulfonyl)-5H-pyrrolo[3,2-d]pyrimidin-4-ol]	5.16
Nc1c(S(=O)(=O)NCC2CCCO2)c2nccnc2n1C1CCCCC1 (stereo not drawn) [Example 96, 6-amino-5-cyclohexyl-N-(oxolan-2-ylmethyl)-5H-pyrrolo[2,3-b]pyrazine-7-sulfonamide]	5.71
Nc1c(S(=O)(=O)c2ccccc2)c2ncncc2n1C1CCCCC1 [Example 19, 7-(benzenesulfonyl)-5-cyclohexyl-5H-pyrrolo[3,2-d]pyrimidin-6-amine]	5.75
COCCNS(=O)(=O)c1c(N)n(C2CCCCC2)c2nccnc12 [Example 90, 6-amino-5-cyclohexyl-N-(2-methoxyethyl)-5H-pyrrolo[2,3-b]pyrazine-7-sulfonamide]	5.21
Nc1c(S(=O)(=O)c2ccccc2)c2nccnc2n1C1CCCCC1O (stereo not drawn) [Example 47, 2-(6-amino-7-(phenylsulfonyl)-5H-pyrrolo[2,3-b]pyrazin-5-yl)cyclohexanol]	5.19
Nc1c(S(=O)(=O)Nc2cccnc2)c2nccnc2n1C1CCCCC1 [Example 42, 6-amino-5-cyclohexyl-N-(pyridin-3-yl)-5H-pyrrolo[2,3-b]pyrazine-7-sulfonamide]	5.64
Nc1c(S(=O)(=O)N2CCOCC2)c2nccnc2n1C1CCCCC1 [Example 61, 5-cyclohexyl-7-(morpholinosulfonyl)-5H-pyrrolo[2,3-b]pyrazin-6-amine]	5.36
COc1ncnc2c(S(=O)(=O)c3ccccc3)c(N)n(C3CCOCC3)c12 [Example 40, 7-(benzenesulfonyl)-4-methoxy-5-(oxan-4-yl)-5H-pyrrolo[3,2-d]pyrimidin-6-amine]	5.13

Continued, values first:

pEC50	Structure (SMILES)
6.04	Cc1ccc(S(=O)(=O)c2c(N)n(C3CCCC3)c3nccnc23)cc1 [Example 4, 5-cyclopentyl-7-[(4-methylbenzene)sulfonyl]-5H-pyrrolo[2,3-b]pyrazin-6-amine]
6.18	Nc1c(S(=O)(=O)NCC2CC2)c2nccnc2n1C1CCCCC1 [Example 89, 6-amino-5-cyclohexyl-N-(cyclopropylmethyl)-5H-pyrrolo[2,3-b]pyrazine-7-sulfonamide]
5.98	Nc1c(S(=O)(=O)c2ccccc2)c2cnccc2n1C1CCCCC1 [Example 23, 3-(benzenesulfonyl)-1-cyclohexyl-1H-pyrrolo[3,2-c]pyridin-2-amine]
6.17	Nc1c(S(=O)(=O)C2CCCCC2)c2nccnc2n1C1CCCCC1 [Example 12, 7-(cyclohexanesulfonyl)-5-cyclohexyl-5-pyrrolo[2,3-b]pyrazin-6-amine]
6.25	Nc1c(S(=O)(=O)c2ccccc2)c2cccnc2n1C1CCC(F)(F)CC1 [Example 17, 3-(benzenesulfonyl)-1-(4,4-difluorocyclohexyl)-1H-pyrrolo[2,3-b]pyridin-2-amine]
6.31	N#Cc1ccc(S(=O)(=O)c2c(N)n(C3CCCCC3)c3nccnc23)cc1 [Example 113, 4-{6-amino-5-cyclohexyl-5H-pyrrolo[2,3-b]pyrazine-7-sulfonyl}benzonitrile]
6.09	Nc1c(S(=O)(=O)NCCC(F)(F)F)c2nccnc2n1C1CCCCC1 [Example 82, 6-amino-5-cyclohexyl-N-(3,3,3-trifluoropropyl)-5H-pyrrolo[2,3-b]pyrazine-7-sulfonamide]
6.12	Nc1c(S(=O)(=O)c2ccccc2)c2nccnc2n1CCC1CCC1 [Example 50, 5-(2-cyclobutylethyl)-7-(phenylsulfonyl)-5H-pyrrolo[2,3-b]pyrazin-6-amine]
6.61	COc1nccc2c(S(=O)(=O)c3ccccc3)c(N)n(C3CCCCC3)c12 [Example 36, 3-(benzenesulfonyl)-1-cyclohexyl-7-methoxy-1-pyrrolo[2,3-c]pyridin-2-amine]
6.09	CC(C)(C)CCn1c(N)c(S(=O)(=O)c2ccccc2)c2nccnc21 [Example 52, 5-(3,3-dimethylbutyl)-7-(phenylsulfonyl)-5H-pyrrolo[2,3-b]pyrazin-6-amine]
6.18	COc1nc(C)nc2c(S(=O)(=O)c3cccc(F)c3)c(N)n(C3CCCCC3)c12 [Example 39, 5-cyclohexyl-7-(3-fluorobenzenesulfonyl)-4-methoxy-2-methyl-5H-pyrrolo[3,2-d]pyrimidin-6-amine]
6.55	Nc1c(S(=O)(=O)c2ccccc2)c2ncccc2n1C1CCC(F)(F)CC1 [Example 21, 3-(benzenesulfonyl)-1-(4,4-difluorocyclohexyl)-1H-pyrrolo[3,2-b]pyridin-2-amine]
6.10	CCCNS(=O)(=O)c1c(N)n(C2CCCCC2)c2nccnc12 [Example 59, 6-amino-5-cyclohexyl-N-propyl-5H-pyrrolo[2,3-b]pyrazine-7-sulfonamide]
6.75	Nc1c(S(=O)(=O)c2ccc(OC(F)F)cc2)c2nccnc2n1C1CCCCC1 [Example 118, 5-cyclohexyl-7-{[4-(difluoromethoxy)-benzene]sulfonyl}-5H-pyrrolo[2,3-b]pyrazin-6-amine]
6.77	COc1nc(C)nc2c(S(=O)(=O)c3ccccc3F)c(N)n(C3CCCCC3)c12 [Example 38, 5-cyclohexyl-7-(2-fluorobenzenesulfonyl)-4-methoxy-2-methyl-5H-pyrrolo[3,2-d]pyrimidin-6-amine]
6.54	Nc1c(S(=O)(=O)N2CCCCCC2)c2nccnc2n1C1CCCCC1 [Example 77, 7-(azepane-1-sulfonyl)-5-cyclohexyl-5H-pyrrolo[2,3-b]pyrazin-6-amine]
6.91	Nc1c(S(=O)(=O)c2ccc3c(c2)OCCO3)c2nccnc2n1C1CCCCC1 [Example 117, 5-cyclohexyl-7-(2,3-dihydro-1,4-benzodioxine-6-sulfonyl)-5H-pyrrolo[2,3-b]pyrazin-6-amine]
6.49	Nc1c(S(=O)(=O)NCC2CCC2)c2nccnc2n1C1CCCCC1 [Example 74, 6-amino-N-(cyclobutylmethyl)-5-cyclohexyl-5H-pyrrolo[2,3-b]pyrazine-7-sulfonamide]
